Experimental data published in patent publication US10073084B2, “Predicting allergic reactions” (priority 2010, dated 2018).
“Also recorded” adds a separate entry of the source. Read-outs that look alike come from different tables or passages of the source.

Tests used:
IFN-γ = IFN-γ levels in supernatant of drug treated FastDC co-cultured with autologous cells (FACs); type: cell-based, human; conditions: for levels of IFN-γ (in words): FIG. 9
[1] = from publicly available www.sens-it-iv website; cited from earlier work
[2] = system: skin biopsy from the same donor; experiment: Skin explant assay: histological damage grade, compound-treated DC + autologous T cells + autologous skin; conditions: for Total positive: positive (Grade II-IV) explants / explants tested; for Skin Explant Result (grade observed): Table 3; for Grade I (number of skin explants with this histological grade): Grade I = negative
autologous T cells [3] = experiment: Modified T cell proliferation assay ([3H] thymidine), drug treated FastDC + autologous T cells; type: cell-based, human
[4] = system: skin biopsy from the same donor
autologous T cells [5] = experiment: T cell proliferation assay ([3H]-Thymidine), treated DC with autologous T cells (Example 3); type: cell-based, human
allogeneic T cells = experiment: T cell proliferation assay ([3H]-Thymidine), treated DC with allogeneic T cells (Example 3); type: cell-based, human; conditions: FIG. 7C
CD86, CD83 and HLA-DR = experiment: Flow cytometric analysis of surface markers on treated monocyte-derived dendritic cells; type: cell-based, human; conditions: after 24 hours of treatment, non-sensitizers compared with control cells
[6] = system: cAMP-responsive element modulator (CREM); experiment: Real-time RT-PCR gene expression in treated dendritic cells: CREM; type: cell-based, human; conditions: 3, 6, 11 and 24 h, single donor, FIG. 6
[7] = system: chemokine (C-C motif) receptor 2 (CCR2); experiment: Real-time RT-PCR gene expression in treated dendritic cells: CCR2; type: cell-based, human; conditions: 3, 6, 11 and 24 h, single donor, FIG. 6
[8] = Table 2, concentrations of Table 1, positive grade
[9] = FIG. 8 / FIG. 10, FastDC treated 24 hours, five days co-culture
[10] = Table 2, concentrations of Table 1

For Penicillin, the “IFNγ Mean” value (IFN-γ; Table 3) is listed as 549.25, the “LLNA Class” value [1] is listed as “Weak” and the “Grade II (number of skin explants with this histological grade)” value [2, 8] is listed as 1. For the same compound, the “Grade III (number of skin explants with this histological grade)” value [2, 8] was 3, the Total positive ([2]; Table 2) was 4/4 and the “Skin Explant Result (grade observed)” value ([2]; listed as Penicillin G) was “Grade III; also recorded: Grade II”.

With `CCOC(=O)c1ccc(N)cc1` [Bz, Benzocaine] the Total positive ([2]; Table 2) was 1/1.

For `O=S(=O)([O-])[O-].[Zn+2]` [ZnSO4, Zinc Sulphate], the “IFNγ Mean” value (IFN-γ) was 13.39, the “autologous T cell proliferation (level in words)” value (“autologous T cell proliferation” below) (autologous T cells [3]) was “low” and the “Grade I (number of skin explants with this histological grade)” value [4] was 2. The Total positive [4] was 2/4 and the “LLNA Class” value [1] was “Non sensitiser”.

In the case of Tween 20, the “IFNγ Mean” value (IFN-γ; Table 3) is listed as 188.24, the “autologous T cell proliferation” value (autologous T cells [3]; [9]) is listed as “low” and the “LLNA Class” value [1] is listed as “Non sensitiser”. The “Grade I (number of skin explants with this histological grade)” value [2, 10] was 2, the Total positive ([2]; Table 2) was 0/2 and the “Skin Explant Result (grade observed)” value [2] was “Grade I”.

For `CC1(C)S[C@@H]2[C@H](NC(=O)[C@H](N)c3ccc(O)cc3)C(=O)N2[C@H]1C(=O)O` [Amoxo, Amoxicillin], the “Grade IV (number of skin explants with this histological grade)” value [4] was 1 and the Total positive [4] was 4/5.

In the case of `C=CCc1ccc(O)c(OC)c1` [Eugenol], the “IFNγ Mean” value (IFN-γ; Table 3) is reported as 425.66, the “T cell proliferation response versus SDS-treated DC” value (autologous T cells [5]; summary statement, T cell source not stated, not reproducible) is reported as “Two-fold” and the “[3H]-Thymidine count relative to SDS and Triton X-100” value (autologous T cells [5]; treated DC with autologous T cells, FIG. 7B) is reported as “two-fold”. The “difference in counts per minute (CPM) versus SDS” value (allogeneic T cells) was “greater than two-fold”, the “expression of the markers CD86, CD83 and HLA-DR” value (“expression of the markers CD86” for short) (CD86, CD83 and HLA-DR) was “reduced peak of expression” and the “CREM expression, logarithmic fold change (LFC)” value [6] was “up-regulated until 24 hours when it becomes down-regulated”. For the same compound, the “CCR2 expression, logarithmic fold change (LFC)” value [7] was “down-regulated from 3-11 hours and then is up-regulated at 24 hours”, the “Grade IV (number of skin explants with this histological grade)” value ([4]; human, 3 days) was 1 and the Total positive ([4]; human, 3 days) was 5/5.

For `NC[C@@H]1O[C@H](O[C@H]2[C@@H](O)[C@H](O[C@@H]3[C@@H](O)[C@H](N)C[C@H](N)[C@H]3O[C@H]3O[C@H](CN)[C@@H](O)[C@H](O)[C@H]3N)O[C@@H]2CO)[C@H](N)[C@@H](O)[C@@H]1O` [Neo, Neomycin], the “Grade I (number of skin explants with this histological grade)” value [4] was 1 and the Total positive [4] was 4/5.

For `OCC(O)CO` [Gly, Glycerol], the “IFNγ Mean” value (IFN-γ; Table 3) was 144.28, the “autologous T cell proliferation” value (autologous T cells [3]; [9]) was “low” and the Total positive ([2]; Table 2) was 1/4.

With `CC(C)O` [IP, Isopropanol] the “IFNγ Mean” value (IFN-γ; Table 3) was 207.26, the “autologous T cell proliferation” value (autologous T cells [3]; [9]) was “low” and the Total positive ([2]; Table 2) was 0/5.

In the case of `Sc1nc2ccccc2s1` [2Mercp, 2-mercaptobenzothiazole], the “IFNγ Mean” value (IFN-γ; Table 3) is listed as 628.81, the “LLNA Class” value [1] is listed as “Moderate” and the “Grade I (number of skin explants with this histological grade)” value [2, 10] is listed as 1. The “Grade II (number of skin explants with this histological grade)” value [2, 8] was 1, the “Grade III (number of skin explants with this histological grade)” value [2, 8] was 2 and the Total positive ([2]; Table 2) was 3/4.

With `C[S+](C)[O-]` [DMSO, Dimethyl sulfoxide] the “autologous T cell proliferation” value (autologous T cells [3]; [9]) was “low”, the “Grade I (number of skin explants with this histological grade)” value [2, 10] was 2 and the “Grade II (number of skin explants with this histological grade)” value [2, 8] was 1. The Total positive ([2]; Table 2) was 1/3 and the “Skin Explant Result (grade observed)” value [2] was “Grade I; also recorded: Grade II”.

For `CCC(C)(C)C(=O)O[C@H]1C[C@@H](C)C=C2C=C[C@H](C)[C@H](CC[C@@H]3C[C@@H](O)CC(=O)O3)[C@H]21` [SimV, Simvastatin], the “Grade I (number of skin explants with this histological grade)” value [2, 10] was 2, the “Grade III (number of skin explants with this histological grade)” value [2, 8] was 1 and the Total positive ([2]; Table 2) was 1/3.

For Triton-X-100, the “IFNγ Mean” value (IFN-γ; Table 3) was 33.54, the “autologous T cell proliferation” value (autologous T cells [3]; [9]) was “low” and the “level of incorporation of [3H]-Thymidine” value (allogeneic T cells) was “approximately 100,000 CPM”. For the same compound, the “expression of the markers CD86” value (CD86, CD83 and HLA-DR) was “increase in expression”, the “CREM expression, logarithmic fold change (LFC)” value [6] was “up-regulated for each time point” and the “CCR2 expression, logarithmic fold change (LFC)” value [7] was “down-regulated after each time period”. The “Grade I (number of skin explants with this histological grade)” value [4] was 4, the “Skin Explant Result (grade observed)” value [4] was “Grade I” and the Total positive [4] was 0/4.

In the case of `N[C@@H](CCC(=O)O)C(=O)O` [LGA, Glutamic Acid], the “IFNγ Mean” value (IFN-γ; Table 3) is reported as 48.40, the “autologous T cell proliferation” value (autologous T cells [3]; [9]) is reported as “low” and the “Grade I (number of skin explants with this histological grade)” value [2, 10] is reported as 2. The “Grade II (number of skin explants with this histological grade)” value [2, 8] was 1, the Total positive ([2]; Table 2) was 1/3 and the “Skin Explant Result (grade observed)” value ([2]; listed as LGA (glutamic Acid)) was “Grade I; also recorded: Grade II”.

With `CCCCCCCCCCCCOS(=O)(=O)[O-].[Na+]` [SDS, Sodium Dodecyl Sulfate] the “IFNγ Mean” value (IFN-γ; Table 3) was 80.33, the “autologous T cell proliferation” value (autologous T cells [3]; [9]) was “low” and the “expression of the markers CD86” value (CD86, CD83 and HLA-DR) was “increase in expression”. The “CREM expression, logarithmic fold change (LFC)” value [6] was ~0, the “CCR2 expression, logarithmic fold change (LFC)” value [7] was “flipping from a down-regulation to an up-regulation” and the Total positive ([4]; human) was 3/6.

For `CN(Cc1cnc2nc(N)nc(N)c2n1)c1ccc(C(=O)N[C@@H](CCC(=O)O)C(=O)O)cc1` [MTX, Methotrexate], the “levels of IFN-γ (in words)” value (IFN-γ) was “low”, the “autologous T cell proliferation” value (autologous T cells [3]; [9]) was “low” and the “Grade I (number of skin explants with this histological grade)” value [2, 10] was 1. For the same compound, the Total positive ([2]; Table 2) was 0/1′.

For `O=CC=Cc1ccccc1` [CINN, Cinnamaldehyde], the “IFNγ Mean” value (IFN-γ; Table 3) was 227.76, the “Grade I (number of skin explants with this histological grade)” value ([4]; human, 3 days) was 2 and the Total positive ([4]; human, 3 days) was 2/4.

In the case of `CN(C)C=O` [DMT, Dimethyl formamide], the “IFNγ Mean” value (IFN-γ; Table 3) is reported as 158.59, the “autologous T cell proliferation” value (autologous T cells [3]; [9]) is reported as “low” and the “Grade I (number of skin explants with this histological grade)” value [2, 10] is reported as 3. The Total positive ([2]; Table 2) was 0/3 and the “Skin Explant Result (grade observed)” value [2] was “Grade I”.

In the case of `CN(C)C(=N)N=C(N)N` [Met, Metformin], the “levels of IFN-γ (in words)” value (IFN-γ) is reported as “low”, the “autologous T cell proliferation” value (autologous T cells [3]; [9]) is reported as “low” and the “Grade I (number of skin explants with this histological grade)” value [2, 10] is reported as 2. For the same compound, the Total positive ([2]; Table 2) was 0/2.

In the case of `Nc1nnc(-c2cccc(Cl)c2Cl)c(N)n1` [L amot, Lamotrigine], the “Grade II (number of skin explants with this histological grade)” value [2, 8] is reported as 1, the “Grade III (number of skin explants with this histological grade)” value [2, 8] is reported as 2 and the “Grade IV (number of skin explants with this histological grade)” value [2, 8] is reported as 1. For the same compound, the Total positive ([2]; Table 2) was 4/4.
